{"source": "patent US20250320205A1", "about": "“STAT6 DEGRADERS” (Gilead Sciences, Inc., priority 2024, published 2025)", "key": {"[1]": {"molecular_target": "T1, STAT6 (Homo sapiens, UniProt P42226)", "T1 construct": "These cells express endogenous STAT6; host or cells: HeLa LgBiT clone 4.14 (CRISPR knock-in of HiBiT into the endogenous STAT6 gene)", "T1 sequence (P42226 1-847)": "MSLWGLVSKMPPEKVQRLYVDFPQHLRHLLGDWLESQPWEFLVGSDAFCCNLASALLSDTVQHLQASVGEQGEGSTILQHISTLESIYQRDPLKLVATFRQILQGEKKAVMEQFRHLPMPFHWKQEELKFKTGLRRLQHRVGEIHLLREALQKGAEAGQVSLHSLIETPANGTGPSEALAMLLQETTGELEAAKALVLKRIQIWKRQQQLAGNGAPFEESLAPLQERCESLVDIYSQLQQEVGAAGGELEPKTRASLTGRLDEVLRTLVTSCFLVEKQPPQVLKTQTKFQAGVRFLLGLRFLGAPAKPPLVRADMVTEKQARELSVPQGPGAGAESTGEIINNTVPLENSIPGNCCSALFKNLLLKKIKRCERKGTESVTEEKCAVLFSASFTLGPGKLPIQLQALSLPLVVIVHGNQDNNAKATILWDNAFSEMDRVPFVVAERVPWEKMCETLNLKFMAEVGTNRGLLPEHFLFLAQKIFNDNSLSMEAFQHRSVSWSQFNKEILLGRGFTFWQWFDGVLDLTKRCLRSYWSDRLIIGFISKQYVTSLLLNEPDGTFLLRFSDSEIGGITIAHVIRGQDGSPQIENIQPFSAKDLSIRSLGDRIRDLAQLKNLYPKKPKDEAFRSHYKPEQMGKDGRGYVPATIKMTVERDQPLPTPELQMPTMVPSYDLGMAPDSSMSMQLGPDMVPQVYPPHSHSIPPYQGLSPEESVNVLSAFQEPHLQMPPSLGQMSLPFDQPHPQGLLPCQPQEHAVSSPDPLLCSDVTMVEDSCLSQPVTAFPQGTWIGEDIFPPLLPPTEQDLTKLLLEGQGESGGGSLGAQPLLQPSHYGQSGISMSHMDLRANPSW", "test": "STAT6 Degrader Assay (HiBiT based, HeLa LgBiT clone 4.14 cells)", "assay_type": "cell-based", "details": "geometric mean across assay runs and compound batches; DC50 provided for test compounds with >80% Emax; read-out: STAT6 degradation DC50", "in_short": "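DC50 (nM) comes from NanoBiT luminescence of HiBiT-knock-in STAT6 in HeLa LgBiT clone 4.14 cells, treated 4-24 h at 37° C. Luminescence reflects non-degraded STAT6, with 50 μM terfenadine wells taken as full degradation.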"}, "[2]": {"system": "Eotaxin-3 (CCL26) release", "test": "Human Whole Blood Eotaxin-3 Assay (IL-4 stimulated)", "assay_type": "cell-based", "details": "Homo sapiens; geometric mean across assay runs and compound batches; EC50 provided for test compounds with >80% Emax", "protocol": "This was a human whole blood assay using recombinant human Interleukin 4 to stimulate the blood and measuring the ability of the test compounds to inhibit eotaxin-3 release. The biological activities of the test compounds have been tested in human whole blood stimulated with IL-4 measuring Eotaxin-3 release. The test compounds were added to 384 well clear flat-bottom plate in a 4-fold serial dilution in triplicates using a liquid handler. Human whole blood stabilized in lithium-heparin tubes was added in a volume of 65 μL per well, resulting in a final DMSO concentration of 0.5%. The plate is incubated for 2 h at 37° C. under 5% CO2/95% air. Subsequently, 5 μL of recombinant human IL-4 (R&D Systems, cat #204-ILB) was added to the wells to a final concentration of 400 pM. The plate was incubated for 48 h at 37° C. under 5% CO2/95% air. The plate was spun down for 10 minutes at 500×g and 20 μL supernatant was harvested and transferred to a 384 well v-bottom plate using a liquid handler and stored at −20° C. until further analysis. 10 μL supernatant was used to measure the level of Eotaxin-3 (CCL26) using Human Eotaxin-3 MSD kit from Mesocsale (Cat #K251UEK-4). The assay was performed according to the manufacture instructions."}}}
{"compound": "C[C@@H](c1cc2c(-n3ccc4c(c3=O)CCN4)ccnc2n1C)N1CCC(c2ccc(C(=O)N3CCC(CN4CCN(c5ccc(N[C@@H]6CCC(=O)NC6=O)cc5F)CC4)CC3)cc2)CC1", "note": "(single isomer, unassigned) [Example 2c35]", "values": [{"measurement": "DC50", "setting": "[1]", "result": 7.5, "unit": "nM"}, {"measurement": "EC50", "setting": "[2]", "result": 18.7, "unit": "nM"}]}
{"compound": "C[C@@H](c1cc2c(-n3ccc4c(c3=O)CCN4)ccnc2n1C)N1CCC(c2ccc(C(=O)N3CCC(CN4CCN(c5ccc(N[C@H]6CCC(=O)NC6=O)cc5F)CC4)CC3)cc2)CC1", "note": "(single isomer, unassigned) [Example 2c36]", "values": [{"measurement": "DC50", "setting": "[1]", "result": 5.7, "unit": "nM"}, {"measurement": "EC50", "setting": "[2]", "result": 22.1, "unit": "nM"}]}
{"compound": "CNc1cc(=O)n(-c2ccnc3c2cc([C@H](C)N2CC=C(c4c(C)cc(C(=O)N5CCn6nc(CN7CCC(c8ccc(N[C@@H]9CCC(=O)NC9=O)cc8F)CC7)cc6C5)cc4F)CC2)n3C)cc1F", "note": "(single isomer, unassigned) [Example 2g5]", "values": [{"measurement": "DC50", "setting": "[1]", "result": 0.5, "unit": "nM"}, {"measurement": "EC50", "setting": "[2]", "result": 2.7, "unit": "nM"}]}
{"compound": "CNc1cc(=O)n(-c2ccnc3c2cc([C@H](C)N2CC=C(c4c(C)cc(C(=O)N5CCn6nc(CN7CCC(c8ccc(N[C@H]9CCC(=O)NC9=O)cc8F)CC7)cc6C5)cc4F)CC2)n3C)cc1F", "note": "(single isomer, unassigned) [Example 2g6]", "values": [{"measurement": "DC50", "setting": "[1]", "result": 0.3, "unit": "nM"}, {"measurement": "EC50", "setting": "[2]", "result": 1.5, "unit": "nM"}]}
{"compound": "CNc1cc(=O)n(-c2ccnc3c2cc([C@H](C)N2CC=C(c4c(C)cc(C(=O)N5CCn6nc(CN7CCC(c8ccc(N[C@H]9CCC(=O)NC9=O)c(OC)c8)CC7)cc6C5)cc4F)CC2)n3C)cc1F", "note": "(single isomer, unassigned) [Example 2g11]", "values": [{"measurement": "DC50", "setting": "[1]", "result": 1, "unit": "nM"}, {"measurement": "EC50", "setting": "[2]", "result": 1.7, "unit": "nM"}]}
{"compound": "CNc1cc(=O)n(-c2ccnc3c2cc([C@H](C)N2CC=C(c4c(C)cc(C(=O)N5CCn6nc(CN7CCC(c8ccc(N[C@@H]9CCC(=O)NC9=O)c(OC)c8)CC7)cc6C5)cc4F)CC2)n3C)cc1F", "note": "(single isomer, unassigned) [Example 2g12]", "values": [{"measurement": "DC50", "setting": "[1]", "result": 0.7, "unit": "nM"}, {"measurement": "EC50", "setting": "[2]", "result": 0.5, "unit": "nM"}]}
{"compound": "CNc1cc(=O)n(-c2ccnc3c2cc(CN2CCC(c4c(F)cc(C(=O)N5CCC(CN6CCN(c7ccc(N[C@@H]8CCC(=O)NC8=O)cc7F)CC6)CC5)cc4F)CC2)n3C)cc1F", "note": "(single isomer, unassigned) [Example 2g33]", "values": [{"measurement": "DC50", "setting": "[1]", "result": 50.8, "unit": "nM"}, {"measurement": "EC50", "setting": "[2]", "result": 64.7, "unit": "nM"}]}
{"compound": "CNc1ccn(-c2ccnc3c2cc(CN2CCC(c4c(F)cc(C(=O)N5CCC(CN6CCN(c7ccc(N[C@@H]8CCC(=O)NC8=O)cc7F)CC6)CC5)cc4F)CC2)n3C)c(=O)c1", "note": "(single isomer, unassigned) [Example 2g57]", "values": [{"measurement": "DC50", "setting": "[1]", "result": 9.3, "unit": "nM"}, {"measurement": "EC50", "setting": "[2]", "result": 50.3, "unit": "nM"}]}
{"compound": "CNc1ccn(-c2ccnc3c2cc(CN2CCC(c4c(F)cc(C(=O)N5CCC(CN6CCN(c7ccc(N[C@H]8CCC(=O)NC8=O)cc7F)CC6)CC5)cc4F)CC2)n3C)c(=O)c1", "note": "(single isomer, unassigned) [Example 2g58]", "values": [{"measurement": "DC50", "setting": "[1]", "result": 10.4, "unit": "nM"}, {"measurement": "EC50", "setting": "[2]", "result": 196, "unit": "nM"}]}
{"compound": "CNc1ccn(-c2ccnc3c2cc([C@H](C)N2CC=C(c4c(C)cc(C(=O)N5CCC(CN6CCN(c7ccc(N[C@H]8CCC(=O)NC8=O)cc7F)C[C@@H]6C)CC5)cc4F)CC2)n3C)c(=O)c1", "note": "(single isomer, unassigned) [Example 2g98]", "values": [{"measurement": "DC50", "setting": "[1]", "result": 6.9, "unit": "nM"}, {"measurement": "EC50", "setting": "[2]", "result": 16.7, "unit": "nM"}]}
{"compound": "CNc1ccn(-c2ccnc3c2cc(CN2CCC(c4c(F)cc(C(=O)N5CCn6nc(CN7CCC(c8ccc(NC9CCC(=O)NC9=O)cc8F)CC7)cc6C5)cc4F)CC2)n3C)c(=O)c1", "note": "(single isomer, unassigned) [Example 2g101]", "values": [{"measurement": "DC50", "setting": "[1]", "result": 1, "unit": "nM"}, {"measurement": "EC50", "setting": "[2]", "result": 0.4, "unit": "nM"}]}
{"compound": "CNc1ccn(-c2ccnc3c2cc(CN2CCC(c4c(F)cc(C(=O)N5CCn6nc(CN7CCC(c8ccc(N[C@@H]9CCC(=O)NC9=O)cc8F)CC7)cc6C5)cc4F)CC2)n3C)c(=O)c1", "note": "(single isomer, unassigned) [Example 2g102]", "values": [{"measurement": "DC50", "setting": "[1]", "result": 1.5, "unit": "nM"}, {"measurement": "EC50", "setting": "[2]", "result": 0.8, "unit": "nM"}]}
{"compound": "CNc1ccn(-c2ccnc3c2cc([C@H](C)N2CC=C(c4c(C)cc(C(=O)N5CCC(CN6CCN(c7cccc(C(=O)NC8CCC(=O)NC8=O)c7)CC6)CC5)cc4F)CC2)n3C)c(=O)c1", "note": "(stereo partly drawn) [Example 2g21, N-(2,6-dioxopiperidin-3-yl)-3-(4-((1-(3-fluoro-5-methyl-4-(1-((S)-1-(1-methyl-4-(4-(methylamino)-2-oxopyridin-1(2H)-yl)-1H-pyrrolo[2,3-b]pyridin-2-yl)ethyl)-1,2,3,6-tetrahydropyridin-4-yl)benzo-yl)piperidin-4-yl)methyl)-piperazin-1-yl)benzamide]", "values": [{"measurement": "EC50", "setting": "[2]", "result": 36.4, "unit": "nM"}]}
{"compound": "Cc1cc(C(=O)N2CCC(CN3CCN(c4ccc(NC5CCC(=O)NC5=O)cc4F)CC3)CC2)cc(F)c1C1=CCN([C@@H](C)c2cc3c(-n4cc(F)c5c(c4=O)CCN5)ccnc3n2C)CC1", "note": "(stereo partly drawn) [Example 2g31, 3-((3-fluoro-4-(4-((1-(3-fluoro-4-(1-((S)-1-(4-(7-fluoro-4-oxo-1,2,3,4-tetra-hydro-5H-pyrrolo[3,2-c]pyridin-5-yl)-1-methyl-1H-pyrrolo[2,3-b]pyridin-2-yl)-ethyl)-1,2,3,6-tetrahydro-pyridin-4-yl)-5-methylbenzo-yl)-piperidin-4-yl)methyl)-piperazin-1-yl)phenyl)-amino)piperidine-2,6-dione]", "values": [{"measurement": "EC50", "setting": "[2]", "result": 268, "unit": "nM"}]}
{"compound": "CNc1cc(=O)n(-c2ccnc3c2cc([C@H](C)N2CC=C(c4c(C)cc(C(=O)N5CCn6nc(CN7CCC(c8cc(OC)c(NC9CCC(=O)NC9=O)cc8F)CC7)cc6C5)cc4F)CC2)n3C)cc1F", "note": "(stereo partly drawn) [Example 2g50, 3-((5-fluoro-4-(1-((5-(3-fluoro-4-(1-((S)-1-(4-(5-fluoro-4-(methylamino)-2-oxopyridin-1(2H)-yl)-1-meth-yl-1H-pyrrolo[2,3-b]pyridin-2-yl)ethyl)-1,2,3,6-tetrahydro-hydropyridin-4-yl)-5-methyl-benzoyl)-4,5,6,7-tetrahydro-pyrazolo[1,5-a]pyrazin-2-yl)-methyl)piperidin-4-yl)-2-methoxyphenyl)amino)piperi-dine-2,6-dione]", "values": [{"measurement": "EC50", "setting": "[2]", "result": 121, "unit": "nM"}]}
{"compound": "CNc1cc(=O)n(-c2ccnc3c2cc([C@@H](C)N2CCC(c4c(F)cc(C(=O)N5CCn6nc(CN7CCC(c8ccc(NC9CCC(=O)NC9=O)cc8F)CC7)cc6C5)cc4F)CC2)n3C)cc1F", "note": "(stereo partly drawn) [Example 2g51, 3-((4-(1-((5-(3,5-difluoro-4-(1-((R)-1-(4-(5-fluoro-4-(methylamino)-2-oxopyridin-1(2H)-yl)-1-methyl-1H-pyrrolo[2,3-b]pyridin-2-yl)-ethyl)piperidin-4-yl)benzoyl)-4,5,6,7-tetrahydropyrazolo [1,5-a]pyrazin-2-yl)methyl)-piperidin-4-yl)-3-fluorophen-yl)amino)piperidine-2,6-dione]", "values": [{"measurement": "EC50", "setting": "[2]", "result": 51.7, "unit": "nM"}]}
{"compound": "CNc1cc(=O)n(-c2ccnc3c2cc([C@H](C)N2CC=C(c4c(C)cc(C(=O)N5CCC(CN6CCN(c7ncc(NC8CCC(=O)NC8=O)cc7F)CC6)CC5)cc4F)CC2)n3C)cc1F", "note": "(stereo partly drawn) [Example 2g64, 3-((5-fluoro-6-(4-((1-(3-fluoro-4-(1-((S)-1-(4-(5-fluoro-4-(methylamino)-2-oxopyridin-1(2H)-yl)-1-meth-yl-1H-pyrrolo[2,3-b]pyridin-2-yl)ethyl)-1,2,3,6-tetrahydro-pyridin-4-yl)-5-methylbenzo-yl)piperidin-4-yl)methyl)-piperazin-1-yl)pyridin-3-yl)-amino)piperidine-2,6-dione]", "values": [{"measurement": "EC50", "setting": "[2]", "result": 25.7, "unit": "nM"}]}
{"compound": "CNc1ccn(-c2ccnc3c2cc([C@H](C)N2CC=C(c4c(C)cc(C(=O)N5CCC(CN6CCN(c7ccc(NC8CCC(=O)NC8=O)c(OC)c7)CC6)CC5)cc4F)CC2)n3C)c(=O)c1", "note": "(stereo partly drawn) [Example 2g125, 3-((4-(4-((1-(3-fluoro-5-meth-yl-4-(1-((S)-1-(1-methyl-4-(4-(methylamino)-2-oxopyridin-1(2H)-yl)-1H-pyrrolo[2,3-b]pyridin-2-yl)ethyl)-1,2,3,6-tetrahydropyridin-4-yl)benzo-yl)piperidin-4-yl)methyl)-piperazin-1-yl)-2-methoxy-phenyl)amino)piperidine-2,6-dione]", "values": [{"measurement": "EC50", "setting": "[2]", "result": 12.9, "unit": "nM"}]}
